target: full-length human HPK1 (MAP4K1) (Homo sapiens (Human), UniProt Q92918); experiment: HPK1 Kinase Assay (Biochemical Assay), ADP-Glo; settings: GST-HPK1 3.2 nM, 10 μM ATP, MBP substrate, read-out: HPK1 enzymatic IC50
Source text: HPK1 Kinase Assay (Biochemical Assay).
A recombinant fusion protein consisting of full-length human HPK1 (MAP4K1) with an N-terminal Glutatione S-transferase (GST) tag was produced in insect cells Sf21 using the baculovirus expression system. GST-HPK1 protein was purified from cell lysates by glutathione Sepharose affinity chromatography. The assay is run in three continuous steps: 1) the HPK1 enzymatic kinase reaction, 2) an ATP depletion, and 3) the ADP detection, the steps 2 and 3 are performed with ADP-Glo™ Kinase Assay kit from Promega (V9101). Test compounds were prepared by 10-point serial dilution in dimethyl sulfoxide (DMSO) and 100 nL of each dilution was spotted onto a 384-well Optiplate (Perkin Elmer and Cat #6007299) by Labcyte Echo. 5 μL kinase reaction buffer (0.02% Brij-35, 2 mM DTT, 50 mM HEPES pH 7.5, MgCl2 10 mM, BSA 0.01% and O-glycerophosphate 12.5 mM) containing HPK1 (3.2 nM) enzyme was transferred to each well and incubated for 15 minutes at room temperature at 60% humidity. The enzymatic reaction was started by adding 5 μl of Start-Mix (10 μM ATP and 3.235 μM MBP). After 120 minutes, the reaction was stopped by adding 5 μL of ADP-Glo reagent (Promega, V9101) and incubating for 40 min. in the dark at 23° C. To determine the level of ADP, 10 μl ADP-Glo Detection solution was added and incubated for 1 hour at 23° C. in the dark. The plate was transferred to a Perkin Elmer EnVision (2104 Multilabel Reader) for luminescence detection and percent inhibition activity and IC50 value were determined using Genedata Screener.

Sequence of full-length human HPK1 (MAP4K1) (Q92918 whole entry): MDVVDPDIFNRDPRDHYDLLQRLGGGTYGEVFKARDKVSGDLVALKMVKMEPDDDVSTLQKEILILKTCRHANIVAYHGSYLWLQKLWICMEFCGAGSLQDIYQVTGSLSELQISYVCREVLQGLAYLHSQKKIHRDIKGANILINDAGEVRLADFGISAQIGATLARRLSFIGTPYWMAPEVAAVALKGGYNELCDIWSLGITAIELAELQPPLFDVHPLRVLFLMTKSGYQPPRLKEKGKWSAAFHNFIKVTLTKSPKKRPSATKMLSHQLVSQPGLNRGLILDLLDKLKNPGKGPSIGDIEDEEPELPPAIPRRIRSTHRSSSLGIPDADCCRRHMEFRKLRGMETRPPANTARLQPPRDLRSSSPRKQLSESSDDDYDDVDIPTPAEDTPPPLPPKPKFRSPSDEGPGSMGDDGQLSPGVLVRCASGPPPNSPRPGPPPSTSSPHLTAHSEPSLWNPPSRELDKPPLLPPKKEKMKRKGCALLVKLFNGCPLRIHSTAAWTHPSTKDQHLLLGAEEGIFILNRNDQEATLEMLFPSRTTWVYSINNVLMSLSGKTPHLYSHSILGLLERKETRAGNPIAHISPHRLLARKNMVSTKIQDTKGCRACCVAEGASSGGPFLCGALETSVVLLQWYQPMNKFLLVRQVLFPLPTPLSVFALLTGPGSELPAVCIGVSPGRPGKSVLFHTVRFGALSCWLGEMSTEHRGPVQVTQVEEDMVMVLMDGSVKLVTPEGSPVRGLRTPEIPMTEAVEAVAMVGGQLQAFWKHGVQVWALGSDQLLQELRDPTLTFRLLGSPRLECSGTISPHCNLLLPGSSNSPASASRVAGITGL

IC50 [nM]	Compound
< 100	Cc1c(N2CCc3cnc(Nc4ccnc(S(C)(=O)=O)c4)nc3C2)cnc2c1NCCO2 [Example 75, 7-(8-methyl-2,3-dihydro-1H-pyrido[2,3-b][1,4]oxazin-7-yl)-N-(2-(methylsulfonyl)pyridin-4-yl)-5,6,7,8-tetrahydropyrido[3,4-d]pyrimidin-2-amine]
100 to 1000	Cc1c(N2CCc3cnc(Nc4ccc(CN5CC(C)(O)C5)cc4)nc3C2)cnc2c1NCCO2 [Example 123, 3-methyl-1-(4-((7-(8-methyl-2,3-dihydro-1H-pyrido[2,3-b][1,4]oxazin-7-yl)-5,6,7,8-tetrahydropyrido[3,4-d]pyrimidin-2-yl)amino)benzyl)azetidin-3-ol]
< 100	Cc1c(N2CCc3cnc(Nc4cc5n(n4)CC(=O)N(C4CC4)CC5)cc3C2)cnc2c1NCCO2 [Example 141, 6-cyclopropyl-2-[(6-{8-methyl-1H,2H,3H-pyrido[2,3-b][1,4]oxazin-7-yl}-5,6,7,8-tetrahydro-2,6-naphthyridin-3-yl)amino]-4H,5H,6H,7H,8H-pyrazolo[1,5-d][1,4]diazepin-7-one]
100 to 1000	COCc1cncc(N2CCc3cnc(Nc4ccc(C5CCOCC5)c(CO)c4)nc3C2)c1 [Example 78, (5-((7-(5-(methoxymethyl)pyridin-3-yl)-5,6,7,8-tetrahydropyrido[3,4-d]pyrimidin-2-yl)amino)-2-(tetrahydro-2H-pyran-4-yl)phenyl)methanol]
< 100	Cc1c(N2CCc3cnc(Nc4ccc(CS(C)(=O)=O)cc4)nc3C2)cnc2oc(=O)[nH]c12 [Example 160, 6-(2-{[4-(methanesulfonylmethyl)phenyl]amino}-5H,6H,7H,8H-pyrido[3,4-d]pyrimidin-7-yl)-7-methyl-1H,2H-[1,3]oxazolo[5,4-b]pyridin-2-one]
100 to 1000	Cc1c(N2CCc3cnc(Nc4cc5n(n4)CC(=O)N(C)CC5)nc3C2)cnc2c1NCCO2 [Example 22, 6-methyl-2-[(7-{8-methyl-1H,2H,3H-pyrido[2,3-b][1,4]oxazin-7-yl}-5H,6H,7H,8H-pyrido[3,4-d]pyrimidin-2-yl)amino]-4H,5H,6H,7H,8H-pyrazolo[1,5-d][1,4]diazepin-7-one]
< 100	COCCS(=O)(=O)Cc1ccc(Nc2cc3c(cn2)CCN(c2cnc4c(c2C)NCCO4)C3)cc1 [Example 172, N-{4-[(2-methoxyethanesulfonyl)methyl]phenyl}-6-{8-methyl-1H,2H,3H-pyrido[2,3-b][1,4]oxazin-7-yl}-5,6,7,8-tetrahydro-2,6-naphthyridin-3-amine]
< 100	CN1CCc2ncc(Nc3ncc4c(n3)CN(c3cnn(C)c3)CC4)cc2C1 [Example 114, 7-(1-methyl-1H-pyrazol-4-yl)-N-(6-methyl-5,6,7,8-tetrahydro-1,6-naphthyridin-3-yl)-5,6,7,8-tetrahydropyrido[3,4-d]pyrimidin-2-amine]
< 100	Cc1c(N2CCc3cnc(Nc4cnc5c(c4)CN(C)CC5)nc3C2)cnc2c1N(C)CCO2 [Example 101, 7-(1,8-dimethyl-2,3-dihydro-1H-pyrido[2,3-b][1,4]oxazin-7-yl)-N-(6-methyl-5,6,7,8-tetrahydro-1,6-naphthyridin-3-yl)-5,6,7,8-tetrahydropyrido[3,4-d]pyrimidin-2-amine]
< 100	Cc1c(N2CCc3cnc(Nc4cnc5c(c4)CN(C)CC5)nc3C2)cnc2c1NC(=O)CO2 [Example 88, 8-methyl-7-(2-((6-methyl-5,6,7,8-tetrahydro-1,6-naphthyridin-3-yl)amino)-5,8-dihydropyrido[3,4-d]pyrimidin-7(6H)-yl)-1H-pyrido[2,3-b][1,4]oxazin-2(3H)-one]
< 100	Cc1c(N2CCc3cnc(Nc4ccc(CCO)cc4)nc3C2)cnc2c1NCCO2 [Example 134, 2-{4-[(7-{8-methyl-1H,2H,3H-pyrido[2,3-b][1,4]oxazin-7-yl}-5H,6H,7H,8H-pyrido[3,4-d]pyrimidin-2-yl)amino]phenyl}ethan-1-ol]
100 to 1000	Cc1c(N2CCc3cnc(Nc4ccc(NC(=O)C5(C)COC5)nc4)nc3C2)cnc2c1NCCO2 [Example 8, 3-methyl-N-{5-[(7-{8-methyl-1H,2H,3H-pyrido[2,3-b][1,4]oxazin-7-yl}-5H,6H,7H,8H-pyrido[3,4-d]pyrimidin-2-yl)amino]pyridin-2-yl}oxetane-3-carboxamide]
< 100	Cc1c(N2CCc3cnc(Nc4ccc(C(=O)N5CC[C@@H](N(C)C)C5)cc4)cc3C2)cnc2c1NCCO2 [Example 11, N-{4-[(3R)-3-(dimethylamino)pyrrolidine-1-carbonyl]phenyl}-6-{8-methyl-1H,2H,3H-pyrido[2,3-b][1,4]oxazin-7-yl}-5,6,7,8-tetrahydro-2,6-naphthyridin-3-amine]
< 100	Cc1cc(Nc2ncc3c(n2)CN(c2cnc4c(c2C)NCCO4)CC3)cnc1N(C)CCN1CCOCC1 [Example 43, N2,3-dimethyl-N5-(7-{8-methyl-1H,2H,3H-pyrido[2,3-b][1,4]oxazin-7-yl}-5H,6H,7H,8H-pyrido[3,4-d]pyrimidin-2-yl)-N2-[2-(morpholin-4-yl)ethyl]pyridine-2,5-diamine]
> 1000	Cc1c(N2CCc3cnc(NC4CCN(Cc5cnn(C)c5)CC4)nc3C2)cnc2c1NCCO2 [Example 70, N-(7-{8-methyl-1H,2H,3H-pyrido[2,3-b][1,4]oxazin-7-yl}-5H,6H,7H,8H-pyrido[3,4-d]pyrimidin-2-yl)-1-[(1-methyl-1H-pyrazol-4-yl)methyl]piperidin-4-amine]
< 100	COc1cccc(F)c1N1CCc2cnc(Nc3ccc(C4CCN(C)CC4)cc3)nc2C1 [Example 117, 7-(2-fluoro-6-methoxyphenyl)-N-(4-(1-methylpiperidin-4-yl)phenyl)-5,6,7,8-tetrahydropyrido[3,4-d]pyrimidin-2-amine]

Reference: patent publication US20240025922A1, “TETRAHYDROPYRIDO[3,4-d]PYRIMIDINES AS HPK1 INHIBITORS” (Merck Patent GmbH, priority 2022, published 2024)
